Assay results reported in PubChem BioAssay AID192 (DTP/NCI, 2004).
Several values for one entry are separate records, joined by “and”; a condition that tells them apart may be missing. Equal entries are not always repeated. Toxic doses and inconclusive results are not listed. How the source made its calls: active means survival T/C of 150% or more; inactive means T/C below 125% in these data. Square brackets hold non-standard residues; d marks the D form. Peptide text beside a SMILES is read from it. * marks the point of attachment. ξ: configuration not given here. Cbz = O=C(OCc1ccccc1)*; ξV = CC(C)C(N)C(=O)O; Sar = CNCC(=O)O

System: BDF1 mice, B16 melanoma ip, median survival T/C
Experiment: NCI In Vivo Anticancer Drug Screen. Data for tumor model B16 Melanoma (intraperitoneal) in B6D2F1 (BDF1) mice
Conditions: endpoint: median survival time, higher = longer survival
Method in brief: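 Mice with transplantable tumors; drug vs vehicle groups; endpoint survival or tumor size; value = T/C.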

[1] = dose: 25.0 mg/kg/injection, schedule: Q01DX009 (ip), vehicle: Klucel (hydroxypropylcellulose) (HPC)
[2] = dose: 50.0 mg/kg/injection, schedule: Q01DX009 (ip), vehicle: Klucel (hydroxypropylcellulose) (HPC)
[3] = dose: 100.0 mg/kg/injection, schedule: Q01DX009 (ip), vehicle: Klucel (hydroxypropylcellulose) (HPC)
[4] = dose: 200.0 mg/kg/injection, schedule: Q01DX009 (ip), vehicle: Klucel (hydroxypropylcellulose) (HPC)
[5] = dose: 100.0 mg/kg/injection, schedule: Q04DX003 (ip), vehicle: Klucel (hydroxypropylcellulose) (HPC)
[6] = dose: 200.0 mg/kg/injection, schedule: Q04DX003 (ip), vehicle: Klucel (hydroxypropylcellulose) (HPC)
[7] = dose: 400.0 mg/kg/injection, schedule: Q04DX003 (ip), vehicle: Klucel (hydroxypropylcellulose) (HPC)
[8] = dose: 12.5 mg/kg/injection, schedule: Q01DX009 (ip), vehicle: saline with Tween-80
[9] = dose: 25.0 mg/kg/injection, schedule: Q01DX009 (ip), vehicle: saline with Tween-80
[10] = dose: 50.0 mg/kg/injection, schedule: Q01DX009 (ip), vehicle: saline with Tween-80
[11] = dose: 400.0 mg/kg/injection, schedule: Q01DX009 (ip), vehicle: Klucel (hydroxypropylcellulose) (HPC)
[12] = dose: 100.0 mg/kg/injection, schedule: Q01DX009 (ip), vehicle: saline with Tween-80
[13] = dose: 6.25 mg/kg/injection, schedule: Q01DX009 (ip), vehicle: saline
[14] = dose: 12.5 mg/kg/injection, schedule: Q01DX009 (ip), vehicle: saline
[15] = dose: 25.0 mg/kg/injection, schedule: Q01DX009 (ip), vehicle: saline
[16] = dose: 50.0 mg/kg/injection, schedule: Q01DX009 (ip), vehicle: saline
[17] = dose: 100.0 mg/kg/injection, schedule: Q01DX009 (ip), vehicle: saline

Measured: T/C

CCC1(C(C)Br)OC2=C(CC(C#N)(C#N)C(C#N)(C#N)C2)O1 (configuration not stated)
inactive: dose: 75.0 mg/kg/injection, schedule: Q04DX003 (ip), vehicle: Klucel (hydroxypropylcellulose) (HPC) 87 % of control

O=C(O)c1nnc(C(=O)O)nn1
inactive: dose: 12.5 mg/kg/injection, schedule: Q01DX009 (ip), vehicle: water 101 % of control | dose: 25.0 mg/kg/injection, schedule: Q01DX009 (ip), vehicle: water 96 % of control | dose: 50.0 mg/kg/injection, schedule: Q01DX009 (ip), vehicle: water 106 % of control | dose: 100.0 mg/kg/injection, schedule: Q01DX009 (ip), vehicle: water 100 % of control

S=C(NNc1ccccc1)Nc1ccccc1
inactive: [1] 97 % of control | [2] 106 % of control

COc1ccc(I)c([N+](=O)[O-])c1
inactive: [2] 93 % of control | [3] 93 % of control | [4] 87 % of control

COc1ccc(N=C(C(=Nc2ccc(OC)cc2)c2ccccc2)c2ccccc2)cc1
inactive: [5] 102 % of control | [6] 103 % of control | [7] 101 % of control

CCO/C=C1\SC(=S)N(c2ccc(C(=O)O)cc2)C1=O
inactive: [8] 107 % of control | [9] 115 % of control | [10] 110 % of control

CC(C)Nc1ccc(Nc2ccc(NC(C)C)cc2)cc1
inactive: dose: 4.5 mg/kg/injection, schedule: Q01DX009 (ip), vehicle: alcohol 100 % of control | dose: 6.75 mg/kg/injection, schedule: Q04DX003 (ip), vehicle: alcohol 102 % of control | dose: 9.0 mg/kg/injection, schedule: Q01DX009 (ip), vehicle: alcohol 92 % of control | dose: 13.5 mg/kg/injection, schedule: Q04DX003 (ip), vehicle: alcohol 92 % of control and 97 % of control

COc1ccc(NC(=O)Oc2ccc(-c3ccccc3)cc2Br)cc1
inactive: [3] 93 % of control | [5] 103 % of control | [4] 93 % of control | [6] 112 % of control | [11] 96 % of control | [7] 109 % of control

C=CC1CC[N-]CC1.C=CC1CC[N-]CC1.C=CC1CC[N-]CC1.[Cl][Cr]([Cl])[Cl]
inactive: dose: 8.0 mg/kg/injection, schedule: Q04DX003 (ip), vehicle: saline with Tween-80 97 % of control | dose: 12.0 mg/kg/injection, schedule: Q04DX003 (ip), vehicle: saline with Tween-80 102 % of control | [8] 95 % of control | dose: 18.0 mg/kg/injection, schedule: Q04DX003 (ip), vehicle: saline with Tween-80 105 % of control | [9] 95 % of control | dose: 25.0 mg/kg/injection, schedule: Q04DX003 (ip), vehicle: saline with Tween-80 121 % of control | [10] 102 % of control | dose: 50.0 mg/kg/injection, schedule: Q04DX003 (ip), vehicle: saline with Tween-80 113 % of control

Cc1ccc(Cl)cc1NC(=O)CCl
inactive: [9] 102 % of control | [10] 100 % of control | [12] 102 % of control

CCNC(Cc1ccccc1)C1CCCO1 (configuration not stated)
inactive: [13] 122 % of control | [14] 120 % of control | [15] 115 % of control | [16] 115 % of control | [17] 100 % of control

CNC(=O)CCN1CCN(CC/C=C2\c3ccccc3Sc3ccc(Cl)cc32)CC1
inactive: dose: 0.12 mg/kg/injection, schedule: Q01DX009 (ip), vehicle: saline 105 % of control | dose: 0.51 mg/kg/injection, schedule: Q01DX009 (ip), vehicle: saline 100 % of control | dose: 1.03 mg/kg/injection, schedule: Q01DX009 (ip), vehicle: saline 87 % of control | dose: 2.06 mg/kg/injection, schedule: Q01DX009 (ip), vehicle: saline 95 % of control | dose: 4.12 mg/kg/injection, schedule: Q01DX009 (ip), vehicle: saline 97 % of control

O=[N+]([O-])c1cc(S(=O)(=O)OCC2CO2)ccc1Cl (configuration not stated)
inactive: dose: 0.1 mg/kg/injection, schedule: Q01DX009 (ip), vehicle: saline with Tween-80 100 % of control | dose: 0.2 mg/kg/injection, schedule: Q01DX009 (ip), vehicle: saline with Tween-80 93 % of control | dose: 0.4 mg/kg/injection, schedule: Q01DX009 (ip), vehicle: saline with Tween-80 97 % of control | dose: 0.8 mg/kg/injection, schedule: Q01DX009 (ip), vehicle: saline with Tween-80 95 % of control

CCCCCC(CN(C)C)C(=O)/C=C\c1ccc(Cl)cc1Cl (configuration not stated)
inactive: [13] 105 % of control | [14] 97 % of control

O=C(O)/C=C/C(=O)NCc1ccco1
inactive: [3] 102 % of control | [4] 86 % of control

CCCCCCCCCCCCCCCCC(C(=O)O)C(O)(CC(=O)O)C(=O)O (configuration not stated)
inactive: dose: 12.5 mg/kg/injection, schedule: Q01DX009 (ip), vehicle: Klucel (hydroxypropylcellulose) (HPC) 101 % of control | [1] 90 % of control

O=C(CBr)c1ccc(I)cc1
inactive: dose: 1.25 mg/kg/injection, schedule: Q01DX009 (ip), vehicle: saline with Tween-80 90 % of control | dose: 2.5 mg/kg/injection, schedule: Q01DX009 (ip), vehicle: saline with Tween-80 102 % of control | dose: 5.0 mg/kg/injection, schedule: Q01DX009 (ip), vehicle: saline with Tween-80 95 % of control | dose: 10.0 mg/kg/injection, schedule: Q01DX009 (ip), vehicle: saline with Tween-80 95 % of control | dose: 20.0 mg/kg/injection, schedule: Q01DX009 (ip), vehicle: saline with Tween-80 88 % of control

c1cc[c]([Pb]([c]2ccccc2)([c]2ccccc2)[n]2ccc3ccccc32)cc1
inactive: dose: 2.08 mg/kg/injection, schedule: Q01DX009 (ip), vehicle: saline with Tween-80 102 % of control | dose: 3.12 mg/kg/injection, schedule: Q01DX009 (ip), vehicle: saline with Tween-80 97 % of control

CSCCC(NC(C)=O)C(=O)NNC(C)C (configuration not stated)
inactive: [15] 105 % of control | [16] 88 % of control | [17] 123 % of control | dose: 200.0 mg/kg/injection, schedule: Q01DX009 (ip), vehicle: saline 88 % of control | dose: 400.0 mg/kg/injection, schedule: Q01DX009 (ip), vehicle: saline 97 % of control

CC(C)C(NC(=O)CN(C)C(=O)OCc1ccccc1)C(=O)O (configuration not stated) (Cbz-[Sar]-[ξV]-OH)
inactive: [13] 96 % of control | [14] 104 % of control | [15] 93 % of control | [16] 97 % of control and 101 % of control

CCc1ccccc1NC(=O)c1cccc(C(=O)Nc2ccccc2CC)c1
inactive: [2] 102 % of control | [3] 105 % of control | [4] 102 % of control

O=c1ccc2ccccc2o1
inactive: [1] 100 % of control | [2] 105 % of control | [3] 111 % of control | [4] 101 % of control

CC(CC#N)OC(=O)c1cccc([N+](=O)[O-])c1 (configuration not stated)
inactive: [3] 88 % of control | [4] 99 % of control | [11] 91 % of control

CC1(C)CC(C)(c2ccc(O)cc2)c2ccccc2O1 (configuration not stated)
inactive: [12] 100 % of control | dose: 200.0 mg/kg/injection, schedule: Q01DX009 (ip), vehicle: saline with Tween-80 86 % of control | dose: 400.0 mg/kg/injection, schedule: Q01DX009 (ip), vehicle: saline with Tween-80 86 % of control

NC(N)=Nc1ccc(C(=O)Oc2ccc([N+](=O)[O-])cc2[N+](=O)[O-])cc1
inactive: [1] 97 % of control | [2] 91 % of control

O=[N+]([O-])c1ccc(Sc2ccncn2)c([N+](=O)[O-])c1
inactive: [8] 100 % of control and 109 % of control | [9] 94 % of control and 101 % of control | [10] 95 % of control and 106 % of control | [12] 108 % of control
